One series deals with MG63 cells. As to the kind of experiment: Wound healing scratch assay, MG63. Format: cell-based, human. Particulars: MG63 cell line, Figure 2d.
A further series has as its system 143B. The series can be described thus: Cell cycle analysis by propidium iodide staining, 143B. Format: cell-based, human. Particulars: treated 24 hours.
The next series deals with endothelial HUVEC cells. The series can be described thus: Angiogenesis assay: endothelial tube formation on matrigel. Format: cell-based, human. As to conditions: 0.5 μM and 1 μM, 5 hours.
A further series concerns HOS, 143B and MG63 cells. Format: cell-based, human. As to conditions: for induction of apoptosis as compared to no treatment control: all three cell lines, 12.5 μM; for apoptotic activity as compared to control: antagonist alone, supplementary tables 2–4.
The next series relates to CB1. As to conditions: cited from earlier work.
A further series relates to 143B cells. As to the kind of experiment: Wound healing scratch assay, 143B. The class given is cell-based, human. Particulars: 143B cell line, with rimonabant, Supplementary Figure S4.
For series [1], the target named is T1, Fatty acid amide hydrolase (FAAH) (Sus scrofa, UniProt Q9TUI8).
T1 sequence (Q9TUI8 1-579): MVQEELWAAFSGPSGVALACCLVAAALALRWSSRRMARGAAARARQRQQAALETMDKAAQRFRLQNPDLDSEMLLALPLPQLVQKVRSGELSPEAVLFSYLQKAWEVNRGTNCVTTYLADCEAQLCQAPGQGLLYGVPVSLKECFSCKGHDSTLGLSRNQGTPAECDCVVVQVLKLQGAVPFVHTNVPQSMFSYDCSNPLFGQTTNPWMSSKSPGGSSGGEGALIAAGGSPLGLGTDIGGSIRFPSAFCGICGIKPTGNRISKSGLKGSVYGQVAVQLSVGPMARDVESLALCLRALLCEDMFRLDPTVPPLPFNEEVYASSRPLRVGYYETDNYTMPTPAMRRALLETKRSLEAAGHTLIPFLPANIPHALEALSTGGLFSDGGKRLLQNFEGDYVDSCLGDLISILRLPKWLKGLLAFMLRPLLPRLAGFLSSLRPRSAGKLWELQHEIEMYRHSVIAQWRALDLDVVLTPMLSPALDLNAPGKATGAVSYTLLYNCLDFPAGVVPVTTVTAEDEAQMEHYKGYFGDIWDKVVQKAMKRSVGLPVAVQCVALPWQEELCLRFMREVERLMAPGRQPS
Particulars: cited from earlier work.

As for `CC/C=C\C/C=C\C/C=C\CC1OC1C/C=C\C/C=C\CCC(=O)NCCCO` (stereo not drawn) [10,11-EDP-NA, (4Z,7Z)-N-(3-hydroxypropyl)-9-(3-((2Z,5Z,8Z)-undeca-2,5,8-trien-1-yl)oxiran-2-yl)nona-4,7-dienamide], the “restriction in wound healing as compared to the control” value (“restriction … compared to the control” below) in the series on MG63 cells is listed as “slightly poorer than the control”. Besides, the “percentage of cells in S” value in the series on 143B is reported as “slight suppression”. Moreover, in the series with endothelial HUVEC cells, the “tube formation as compared to the vehicle control” value was “Restriction of tube formation”.

As to `CC/C=C\C/C=C\C/C=C\C/C=C\C/C=C\C/C=C\CCC(=O)NCCO` [DHEA, docosahexaenoylethanolamide], the “induction of apoptosis as compared to no treatment control” value with HOS, 143B and MG63 cells is “no induction of apoptosis”.

`CC/C=C\C/C=C\C/C=C\CC1OC1C/C=C\C/C=C\CCC(=O)NC(C)CO` (stereo not drawn) [10,11-EDP-IA, (4Z,7Z)-N-(1-hydroxypropan-2-yl)-9-(3-((2Z,5Z,8Z)-undeca-2,5,8-trien-1-yl)oxiran-2-yl)nona-4,7-dienamide]: the “restriction … compared to the control” value in the series with MG63 cells was “slightly poorer than the control”. In addition, the “tube formation as compared to the vehicle control” value with endothelial HUVEC cells is on record as “Restriction of tube formation”.

Turning to `CCCCCC=CCC=CCC=CCC=CCCCC(=O)NC(C)CO` (single isomer, unassigned) [S isomers], the “CB1 binding, fold lower as compared to AEA” value in the series with CB1 is reported as 2 fold.

As to `COc1ccc(C(=O)c2c(C)n(CCN3CCOCC3)c3cc(I)ccc23)cc1` [AM 630], the “apoptotic activity as compared to control” value in the series with HOS, 143B and MG63 cells is listed as “very limited apoptotic activity”.

Take `CC/C=C\C/C=C\C/C=C\CC1OC1C/C=C\C/C=C\CCC(=O)NCCO` (stereo not drawn) [10,11-EDP-EA, (4Z,7Z)-N-(2-hydroxyethyl)-9-(3-((2Z,5Z,8Z)-undeca-2,5,8-trien-1-yl)oxiran-2-yl)nona-4,7-dienamide]: the “reduction of cell migration in presence of CB1 receptor antagonist” value in the series with 143B cells was “completely abolished”. In the series on endothelial HUVEC cells, the “tube formation as compared to the vehicle control” value is listed as “Restriction of tube formation”.

`CCC1OC1C/C=C\C/C=C\C/C=C\C/C=C\C/C=C\CCC(=O)NCCO` (stereo not drawn) [19,20-EDP-EA]: in series [1], the rate of hydrolysis was 150 pmol min−1 mg protein−1.

As to `CC/C=C\C/C=C\C/C=C\C/C=C\C/C=C\C/C=C\CCC(=O)O` [DHA, docosahexaenoic acid], in the series with HOS, 143B and MG63 cells, the “induction of apoptosis as compared to no treatment control” value is listed as “no induction of apoptosis”.

Regarding `CCCCC/C=C\C/C=C\C/C=C\C/C=C\CCCC(=O)NCCO` [AEA, arachidonoyl ethanolamide], the “induction of apoptosis as compared to no treatment control” value in the series with HOS, 143B and MG63 cells is recorded as “no induction of apoptosis”.

As for `CCCCC/C=C\C/C=C\C/C=C\C/C=C\CCCC(=O)O` [AA, arachidonic acid], the “induction of apoptosis as compared to no treatment control” value with HOS, 143B and MG63 cells is “no induction of apoptosis”.

For the molecule `Cc1c(C(=O)NN2CCCCC2)nn(-c2ccc(Cl)cc2Cl)c1-c1ccc(Cl)cc1` [rimonabant], the “apoptotic activity as compared to control” value with HOS, 143B and MG63 cells was “very limited apoptotic activity”.

For the molecule `CC/C=C\C/C=C\C/C=C\CC1OC1C/C=C\C/C=C\CCC(=O)NC1CC1` (stereo not drawn) [10,11-EDP-CA, (4Z,7Z)-N-cyclopropyl-9-(3-((2Z,5Z,8Z)-undeca-2,5,8-trien-1-yl)oxiran-2-yl)nona-4,7-dienamide], the “restriction … compared to the control” value with MG63 cells is given as “comparable to 10,11-EDP-EA”. Moreover, in the series on endothelial HUVEC cells, the “tube formation as compared to the vehicle control” value was “Restriction of tube formation”.

As to `CCCCCC=CCC=CCC=CCC=CCCCC(=O)NC(C)CO` (single isomer, unassigned) [R isomer], the “CB1 binding, fold higher as compared to AEA” value in the series with CB1 is recorded as 4 fold.
